Source: US10065990B2, “Cyclic peptide compound, and preparation method, pharmaceutical composition and use thereof” (HANGZHOU GUANYU BIO-MEDICAL CO., LTD, priority 2013, dated 2018)
Where two headings read alike, the source gives them in different places.

How the values were obtained:
HDAC1 = HDAC1 (Homo sapiens, UniProt Q13547); assay: HDAC biochemical activity measurement (fluorescent substrate deacetylation);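 further: fluorogenic acetyl-lysine substrate (20 µM) deacetylated by HDAC1, then developer releases fluorophore read at 360 nm excitation and 460 nm emission, inhibitor incubated 30 min at 37 °C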
Description: (§2) The chemical activity of the compound is determined according to the degree of deacetylation inhibition of the HDAC enzyme. This experiment measured the degree of deacetylation related to tumor proliferation and metastasis of HDAC1, HDAC2, HDAC3, HDAC8, HDAC11 five subtypes HDAC enzymes. After the substrate containing an acetylated lysine side chain and HDAC enzyme are labeled with a fluorescent label, the fluorescent substrate is de acetyl. The fluorescent labeled substrate is cleaved by the enzyme, and the fluorescent substance is released, which generates 460 nm emission light under the excitation of 360 nm light.
(§3) HDAC substrate was diluted with reaction buffer to 200M (reaction concentration of 20M), the HDAC enzyme was diluted to the appropriate concentration, then added different concentrations of the test compounds and acted at 37° C. 30 minutes, and then added the same volume of 2-times concentration substrate developing solution (developer), incubated at room temperature for 15 minutes.

HDAC2 = HDAC2 (Homo sapiens, UniProt Q92769); assay: as above; conditions: 37° C. 30 minutes;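 further: HDAC2 enzyme with an acetyl-lysine fluorescent substrate, then developer added, fluorescence read at excitation 360 nm and emission 460 nm, inhibition measured across several compound concentrations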
Description: as §2, §3

HDAC7 = target: T1, HDAC7 (Homo sapiens, UniProt Q8WUI4); assay: as above; conditions: HDAC7; 37° C. 30 minutes;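 further: fluorogenic deacetylation assay using acetyl-lysine substrate at 20 µM, enzyme and compound incubated 30 min at 37 °C, then developer added, fluorescence read at 360/460 nm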
T1 sequence (Q8WUI4 1-952): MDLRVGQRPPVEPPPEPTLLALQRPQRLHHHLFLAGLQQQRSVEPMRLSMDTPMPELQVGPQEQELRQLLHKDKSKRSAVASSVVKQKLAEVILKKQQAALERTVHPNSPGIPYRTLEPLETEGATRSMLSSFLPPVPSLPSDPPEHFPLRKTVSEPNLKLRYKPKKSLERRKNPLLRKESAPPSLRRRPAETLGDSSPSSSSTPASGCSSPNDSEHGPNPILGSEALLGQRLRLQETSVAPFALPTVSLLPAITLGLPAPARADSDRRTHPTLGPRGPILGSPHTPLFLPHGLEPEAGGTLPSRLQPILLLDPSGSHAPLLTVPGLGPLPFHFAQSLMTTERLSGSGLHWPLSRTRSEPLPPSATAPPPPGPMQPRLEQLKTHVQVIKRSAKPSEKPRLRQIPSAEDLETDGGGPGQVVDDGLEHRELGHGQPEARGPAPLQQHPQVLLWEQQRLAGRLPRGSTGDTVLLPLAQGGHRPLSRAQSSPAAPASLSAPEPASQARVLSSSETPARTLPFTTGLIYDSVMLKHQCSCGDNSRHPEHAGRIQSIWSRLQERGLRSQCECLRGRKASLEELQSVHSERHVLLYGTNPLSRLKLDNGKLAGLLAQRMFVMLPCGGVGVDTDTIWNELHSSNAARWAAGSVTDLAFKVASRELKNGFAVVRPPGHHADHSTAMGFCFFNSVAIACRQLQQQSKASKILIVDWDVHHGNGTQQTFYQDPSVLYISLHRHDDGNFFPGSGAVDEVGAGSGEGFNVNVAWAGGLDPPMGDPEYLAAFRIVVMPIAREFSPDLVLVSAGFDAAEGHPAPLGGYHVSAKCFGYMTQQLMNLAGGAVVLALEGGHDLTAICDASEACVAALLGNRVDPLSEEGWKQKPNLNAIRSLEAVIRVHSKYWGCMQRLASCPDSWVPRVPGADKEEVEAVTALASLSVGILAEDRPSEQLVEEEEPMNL

[1] = test system: A549 (human lung cancer cells); assay: MTT cancer cell growth inhibition; type: cell-based; conditions: MTT, 72 hours incubation, read-out: GI50 A54
Procedure, shortened: (§1)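 Using a 72 h MTT format, triplicate wells of 1500 cells received compound concentrations from 10^−5 to 10^−10 M. Formazan was read at 570 nm after DMSO dissolution, and GI50 was derived from viability.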

[2] = test system: BGC-823 (human gastric cancer cells); assay: MTT cancer cell growth inhibition; type: cell-based; conditions: MTT, 72 hours incubation, read-out: GI50 BG
Procedure, shortened: as §1

[3] = test system: Bel-7402 (human hepatoma cells); assay: MTT cancer cell growth inhibition; type: cell-based; conditions: MTT, 72 hours incubation, Bel-7402 cells, read-out: GI50 Bel-7402
Procedure, shortened: as §1

[4] = test system: DU145 (human prostate cancer cells); assay: MTT cancer cell growth inhibition; type: cell-based; conditions: MTT, 72 hours incubation, read-out: GI50 Du1
Procedure, shortened: as §1

[5] = test system: HT1080 (human fibrosarcoma cells); assay: MTT cancer cell growth inhibition; type: cell-based; conditions: MTT, 72 hours incubation, read-out: GI50 HT1
Procedure, shortened: as §1

[6] = test system: Hela (human cervical cancer cells); assay: MTT cancer cell growth inhibition; type: cell-based; conditions: MTT, 72 hours incubation, read-out: GI50 Hela
Procedure, shortened: as §1

[7] = test system: Huh-7 (human hepatoma cells); assay: MTT cancer cell growth inhibition; type: cell-based; conditions: MTT, 72 hours incubation, Huh-7 cells, read-out: GI50 Huh-7
Procedure, shortened: as §1

[8] = test system: KBM5-T315I (human chronic myelogenous leukemia); assay: MTT cancer cell growth inhibition; type: cell-based; conditions: MTT, 72 hours incubation, KBM5-T315I cells, read-out: GI50 KBM5-T315I
Procedure, shortened: as §1

[9] = test system: MCF-7 (human breast cancer cells); assay: MTT cancer cell growth inhibition; type: cell-based; conditions: 72 hours incubation, read-out: GI50 MCF
Procedure, shortened: as §1

[10] = test system: MDA-MB-231 (breast cancer cells); assay: MTT cancer cell growth inhibition; type: cell-based
Procedure, shortened: as §1

[11] = test system: MOLT-4 (human acute lymphoblastic leukemia cells); assay: MTT cancer cell growth inhibition; type: cell-based; conditions: MTT, 72 hours incubation, read-out: GI50 Mol
Procedure, shortened: as §1

[12] = test system: SGC-7901 (human gastric cancer cells); assay: MTT cancer cell growth inhibition; type: cell-based; conditions: MTT, 72 hours incubation, SGC-7901 cells, read-out: GI50 SGC-7901
Procedure, shortened: as §1

[13] = test system: U937 (human leukemia cells); assay: MTT cancer cell growth inhibition; type: cell-based; conditions: MTT, 72 hours incubation, read-out: GI50 U93
Procedure, shortened: as §1

[14] = HDAC1, 37° C. 30 minutes, read-out: IC50 HDAC1
[15] = Table 3, column C, read-out: IC50 HDAC1, C (six-membered ring with substituents)
[16] = Homo sapiens, MDA-MB-231, 72 h, read-out: GI50 MDA-MB-231, MTT, 72 hours incubation, MDA-MB-231 cells

Sequence of HDAC2 (Q92769 whole entry, species assumed): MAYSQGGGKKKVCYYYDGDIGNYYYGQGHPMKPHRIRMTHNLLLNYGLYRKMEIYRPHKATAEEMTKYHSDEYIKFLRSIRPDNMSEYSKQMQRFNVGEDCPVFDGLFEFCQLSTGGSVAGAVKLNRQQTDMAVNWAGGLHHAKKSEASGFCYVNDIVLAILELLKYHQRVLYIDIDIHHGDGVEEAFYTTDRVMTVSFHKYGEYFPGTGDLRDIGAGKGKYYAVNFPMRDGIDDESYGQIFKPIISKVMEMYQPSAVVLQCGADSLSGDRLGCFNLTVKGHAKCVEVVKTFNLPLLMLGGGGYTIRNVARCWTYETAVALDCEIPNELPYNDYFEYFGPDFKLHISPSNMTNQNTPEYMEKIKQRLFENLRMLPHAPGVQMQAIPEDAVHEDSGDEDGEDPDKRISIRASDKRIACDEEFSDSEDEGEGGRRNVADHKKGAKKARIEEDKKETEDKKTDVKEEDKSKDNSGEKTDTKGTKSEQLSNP
Sequence of HDAC1 (Q13547 whole entry, species assumed): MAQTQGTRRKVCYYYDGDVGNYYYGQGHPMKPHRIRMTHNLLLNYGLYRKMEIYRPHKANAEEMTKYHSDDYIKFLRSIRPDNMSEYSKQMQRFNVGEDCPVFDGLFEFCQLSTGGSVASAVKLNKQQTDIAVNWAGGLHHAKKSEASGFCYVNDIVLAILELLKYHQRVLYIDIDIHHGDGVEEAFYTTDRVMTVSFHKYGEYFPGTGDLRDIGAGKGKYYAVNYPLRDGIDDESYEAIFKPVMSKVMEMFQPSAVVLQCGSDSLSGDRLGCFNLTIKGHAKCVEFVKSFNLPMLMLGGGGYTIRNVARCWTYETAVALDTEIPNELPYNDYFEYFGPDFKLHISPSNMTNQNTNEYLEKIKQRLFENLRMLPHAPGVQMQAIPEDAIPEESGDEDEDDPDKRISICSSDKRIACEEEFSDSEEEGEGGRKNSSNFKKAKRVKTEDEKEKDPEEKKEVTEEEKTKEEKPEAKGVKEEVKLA

SMILES	IC50 (HDAC1; [14]) [nM]	IC50 (HDAC1; [15]) [nM]	IC50 (HDAC2) [nM]	IC50 HDAC7 (HDAC7)	GI50 ([1]; Homo sapiens, A549, 72 h) [nM]	GI50 ([2]; Homo sapiens, BGC-823, 72 h) [nM]	GI50 ([3]; Homo sapiens, Bel-7402, 72 h) [nM]	GI50 ([4]; Homo sapiens, DU-145, 72 h) [nM]	GI50 ([5]; Homo sapiens, HT-1080, 72 h) [nM]	GI50 ([6]; Homo sapiens, HeLa, 72 h) [nM]	GI50 ([7]; Homo sapiens, Huh-7, 72 h) [nM]	GI50 ([8]; Homo sapiens, 72 h) [nM]	GI50 ([9]; Homo sapiens, MCF7, 72 h) [nM]	GI50 [10, 16] [nM]	GI50 ([11]; Homo sapiens, MOLT-4, 72 h) [nM]	GI50 ([12]; Homo sapiens, SGC-7901, 72 h) [nM]	GI50 ([13]; Homo sapiens, U-937, 72 h) [nM]	other results
C/C=C1\NC(=O)c2cc(F)cc(n2)CNC(=O)C[C@@H](/C=C/CCSC(C)=O)OC(=O)[C@H](CC)NC1=O [Compound 58]	32	32	21	no activity	50	60	49	20	40	60	39	82	80	39	30	51	60	
C/C=C1\NC(=O)c2cc(F)cc(n2)CNC(=O)C[C@@H](/C=C/CCSC(=O)CCCCCCC)OC(=O)[C@H](C)NC1=O [Compound 61]	13	13	38	no activity	30	70	67	30	60	80	38	94	90	38	30	38	50	
C/C=C1\NC(=O)c2nc(ccc2C)CNC(=O)C[C@@H](/C=C/CCSC(C)=O)OC(=O)[C@H](Cc2ccccc2)NC1=O [Compound 66]	41	41	16	no activity	20	60	34	30	30	90	38	31	30	38	30	25	20	
C/C=C1\NC(=O)c2nc(ccc2F)CNC(=O)C[C@@H](/C=C/CCSC(C)=O)OC(=O)[C@H](CCCCN)NC1=O [Compound 72]	64	64	331	no activity	20	60	61	30	60	40	37	39	30	37	30	26	30	
C/C=C1\NC(=O)c2cc(F)cc(n2)CNC(=O)C[C@@H](/C=C/CCSC(C)=O)OC(=O)[C@H](CCCCNC(=O)OCC2c3ccccc3-c3ccccc32)NC1=O [Compound 76]	51	51	36	no activity	50	30	72	10	70	90	26	34	30	26	20	51	30	
C/C=C1\NC(=O)c2cc(F)cc(n2)CNC(=O)C[C@@H](/C=C/CCSC(C)=O)OC(=O)[C@H](C(C)C)NC1=O [Compound 94]	42		35	no activity	40		84		80	60	33	35	30	33	30	41	30	GI50 [2]: 30 nM; GI50 [4]: 30 nM
C/C=C1\NC(=O)c2nc(F)cc(n2)CNC(=O)C[C@@H](/C=C/CCSC(C)=O)OC(=O)[C@H](C(C)C)NC1=O [Compound 98]	61		19	no activity														GI50 [1]: 600 nM; GI50 [2]: 50 nM; GI50 [3]: 43 nM; GI50 [4]: 40 nM; GI50 [5]: 80 nM; GI50 [6]: 50 nM; GI50 [7]: 28 nM; GI50 [8]: 58 nM; GI50 [9]: 30 nM; GI50 ([10]; read-out: GI50 MDA-MB-231, MTT, 72 hours incubation, MDA-MB-231 cells): 37 nM; GI50 [11]: 20 nM; GI50 [12]: 36 nM; GI50 [13]: 30 nM
C/C=C1\NC(=O)c2nc(ccc2F)CCNC(=O)C[C@@H](/C=C/CCSC(C)=O)OC(=O)[C@H](C(C)C)NC1=O [Compound 103]	38		29	no activity	40	20	25	30	80	40	47	51	30	39	20	37	50	
C/C=C1\NC(=O)c2cc(F)cc(n2)CCNC(=O)C[C@@H](/C=C/CCSC(C)=O)OC(=O)[C@H](C(C)C)NC1=O [Compound 104]	51		26	no activity	50	10	57	40	90	30	89	68	20	20	30	26	50	
C/C=C1\NC(=O)c2cccc(n2)CNC(=O)C[C@@H](/C=C/CCS)OC(=O)[C@@H](C)NC1=O [Compound 145]	51		29	no activity	70	60	18	60	100	40	58	31	60	41	100	18	70	
